Test results taken from patent US7968572B2, “Nitrogen-containing heterocyclic compound and pharmaceutical application thereof” (Ono Pharmaceuticals Co., Ltd., priority 2005, dated 2011).
pIC50: −log10 of the molar value.

Assays:
[1] = tested on: TNF-α production stimulated by lipopolysaccharide (LPS) in THP-1; assay: Inhibitory activity against TNF-α production using human cell lines (LPS-stimulated THP-1); assay type: cell-based; conditions: 1.5 h, THP-1 cells, LPS stimulation, 90 minutes at 37° C., TNF-α by ELISA
Method: Inhibitory Activity against TNF-α Production using Human Cell Lines
Using THP-1 which is a human monocytic cell line, the inhibitory effect of the compound of the present invention against TNF-α production stimulated by lipopolysaccharide (LPS) was studied.
Each 50 μL of lipopolysaccharide (LPS; 055:B5, Difco) prepared to a concentration of 40 ng/mL using RPMI-1640 medium containing 10% fetal calf serum (hereinafter abbreviated to RPMI-1640) and RPMI-1640 containing the compound of the present invention was added to a 96-well plate for cell culture. 100 μL of the cell suspension of THP-1 (Dainippon Pharmaceutical Co., Ltd, #06-202) prepared to a cell density of 2×10^6 cells/mL using RPMI-1640 was added and cultured for 90 minutes at 37° C. in an incubator (5% CO2, 95% air). After completion of the reaction, the culture medium supernatant was recovered and the amount of produced TNF-α was measured using an ELISA kit (Invitrogen, #850090192).
The inhibitory activity against TNF-α production, which is the effect of the compound of the present invention, was calculated as an inhibition rate (%) by the following equation: Inhibition rate (%)={(AC−AX)/(AC−AB)}×100
wherein AB is a measured value without LPS induction;
AC is a measured value with LPS induction in the absence of a test compound; and
AX is a measured value with LPS induction in the presence of a test compound.
(§1) Inhibition rate of compounds with each concentration was calculated, and a value indicating 50% inhibition (IC50) was determined from the inhibition curve.

[2] = molecular target: T1, recombinant human p38α MAP kinase (Homo sapiens, UniProt Q16539); assay: Study on p38α MAP kinase inhibitory activity (ATF2 phosphorylation, Alpha Screen); assay type: biochemical; conditions: biotinylated ATF2 substrate, 30° C. for 30 minutes
T1 construct: purchased Upstate Biotechnology #14-251
T1 sequence (Q16539 whole entry): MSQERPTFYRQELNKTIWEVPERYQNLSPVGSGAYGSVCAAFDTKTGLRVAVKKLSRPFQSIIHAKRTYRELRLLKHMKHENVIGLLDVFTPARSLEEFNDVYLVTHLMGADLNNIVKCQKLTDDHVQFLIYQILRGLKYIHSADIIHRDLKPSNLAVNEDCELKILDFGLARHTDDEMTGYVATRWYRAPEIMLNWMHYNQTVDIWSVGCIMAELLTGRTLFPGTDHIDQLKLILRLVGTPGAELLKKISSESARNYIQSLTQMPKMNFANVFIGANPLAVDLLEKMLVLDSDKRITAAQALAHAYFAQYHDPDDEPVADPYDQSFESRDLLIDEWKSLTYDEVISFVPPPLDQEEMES
Method: Study on p38α MAP Kinase Inhibitory Activity
Using activating transcription factor-2 (hereinafter abbreviated to ATF2) which is a substrate for p38α MAP kinase, the inhibitory action of the compounds of the present invention was investigated on the phosphorylation by a recombinant human p38α MAP kinase.
A kinase buffer (25 mM Tris-HCl (pH 7.5), 5 mM β-glycerophosphate, 2 mM dithiothreitol, 0.1 mM Na3VO4, 10 mM MgCl2) containing a recombinant human p38α MAP kinase (Upstate Biotechnology #14-251) was added to a 384-well plate (5 μL) (6.25 ng protein/well) for fluorescence measurement. After addition of a kinase buffer (5 μL) containing the compound of the present invention, the resulting mixture was incubated at room temperature for 20 minutes. A substrate mixture (5 μL) of biotinylated ATF2 of 5 μg/mL (Upstate Biotechnology #14-432), adenosine triphosphate (90 μmol/L) (Sigma #FL-AAS) and anti-phosphorylated ATF2 antibody (20-fold dilution) (Cell Signaling Technology #9221L) prepared separately was added thereto, and enzyme reaction was carried out at 30° C. for 30 minutes. After the reaction, Hepes buffer (5 μL) containing 0.25% BSA and 100 mM EDTA was added to stop the enzyme reaction. The amount of a complex of the phosphorylated ATF2 and anti-phosphorylated ATF2 antibody produced by the reaction was measured using an Alpha Screen™ Rabbit Detection kit (Packard #6760607).
The p38α MAP kinase inhibitory activity, which is the effect of the compound of the present invention, was calculated as an inhibition rate (%) according to the following equation: Inhibition rate (%)={(AC−AX)/(AC−AB)}×100
wherein AB is a measured value without addition of the enzyme;
AC is a measured value with addition of the enzyme in the absence of a test compound; and
AX is a measured value with addition of the enzyme in the presence of a test compound.
as §1

[3] = Evaluation of artificial lipid membrane binding using a Biacore S51 system
Method: Evaluation of Artificial Lipid Membrane Binding using a Biacore S51 (Registered Trademark) System
Using an aspirator, 10 mM of 1,2-dioleoyl-sn-glycero-3-phosphate monosodium salt (hereinafter abbreviated to DOPA) chloroform solution was evaporated to be dryness, and 0.6 mL of PBS/5% dimethyl sulfoxide (hereinafter abbreviated to DMSO) was added thereto. After carrying out thorough suspension by vortex, freezing and thawing were repeated for 5 times. Liposomes were prepared using a liposome preparation device (manufactured by Avestin Inc.) and two syringes and diluted to be 0.5 mM with PBS/5% DMSO just before the immobilization.
Each compound having a final concentration in PBS/5% DMSO of 50 μM was prepared by adding 38 μL of 1× PBS to 2 μL of 10 mM DMSO solution and further adding 360 μL of 1× PBS/5% DMSO and measured.
All of the following analyses were carried out using the Biacore S51 (registered trademark) system, and the measuring conditions were set up by Biacore S51 Control Software.
The measuring temperature was set to be 37° C., and PBS/5% DMSO (pH 7.4 or pH 6.0) was used as the buffer. Series S Sensor Chip L1 was used as the sensor chip. DOPA was immobilized on one of the measuring spots on the sensor surface, and the central spot was used as the reference.
Immobilization of the liposomes was carried out for about 3 minutes at a flow rate of 10 μL/minute, and then each compound was added thereto at a flow rate of 30 μL/minute to measure the interaction. The measuring conditions are as shown in the following.
Assay buffer: PBS/5% DMSO (pH 7.4 or pH 6.0)
Measuring temperature: 37° C.
Sensor chip: Series S Sensor Chip L1
Flow rate: 10 μL/minute at the time of liposome immobilization, 30 μL/minute at the time of interaction measurement
Regeneration: 20 mM CHAPS (3-[(3-cholamidopropyl)dimethylammonio]-1-propanesulfonate), an isopropanol/50 mM aqueous solution of sodium hydroxide=40/60 (volume ratio) mixed solution (60 seconds)
The data treatment was carried out in accordance with the method of Abdiche et al. (Analytical Biochemistry, 328, 233-243 (2004)) using Biacore S51 Evaluation Software.
After correcting infinitesimal error of the concentration of DMSO contained in the sample solution, the value of binding response (RU) obtained by subtracting the value of reference was divided by the sample molecular weight. Additionally, since the thus obtained value is proportional to the capturing amount of liposome, it was divided by the capturing amount at the time of the cycling and multiplied by 10^6 to be used as the correction value (correction value=1000000×RU (compound to be tested)/molecular weight (compound to be tested) RU (liposome)).
By adding propranolol, amiodarone, desipramine, imipramine and procaine as controls, it was confirmed that variation of the binding response is within about 10 to 15%.
Compounds having a binding response value after correction of 100 or more were judged positive.

[4] = tested on: TNF-α production induced by lipopolysaccharide (LPS) in rats; assay: Rat cytokine-production model; assay type: in vivo; conditions: male SD rat, oral 0.3 mg/kg, LPS 10 μg/kg intravenously after 8 hours, plasma TNF-α ninety minutes after LPS; read-out: Inhibition rate (%) (Dose of compound: 0.3 mg/kg)
Method: Rat Cytokine-Production Model
The in vivo effect of the compound of the present invention was studied on TNF-α production induced by lipopolysaccharide (LPS) in rats.
A vehicle containing the compound of the present invention was orally administered to male SD rat (Charles River Japan, Inc.), and after 8 hours, lipopolysaccharide (LPS, 055:B5, Difco) was intravenously administered at the dose of 10 μg/kg (5 animals/group). Only a vehicle was orally administered to a control group (5 animals). Ninety minutes after the LPS treatment, heparinized blood collection was performed via the abdominal vena cava under anesthesia with ether, and blood plasma was obtained by centrifugation (12,000 rpm, 3 minutes, 4° C.). The obtained blood plasma sample was stored at −80° C. until it was used. TNF-α in the blood plasma was measured using an ELISA kit from R&D System (#RTA00).
The inhibitory activity of the compound of the present invention against TNF-α production was calculated as an inhibition rate (%) according to the following equation: Inhibition rate (%)={(AC−AX)/AC}×100
wherein AC is a measured value in case where no test compound was administered under LPS induction, and
AX is a measured value in case where a test compound was administered under LPS induction.

[5] = tested on: Chinese hamster lung cells (CHL/IU); assay: Phospholipidosis detection system using a fluorescence labeling phospholipid analog (NBD-PE); assay type: cell-based
Method: Study by a Phospholipidosis Detection System using a Fluorescence Labeling Phospholipid Analog Cell suspension (7×10^4 cells/ml) of Chinese hamster lung cells (CHL/IU) prepared using MEM (minimum essential medium) was added to a 96 well plate (96 well clear bottom plate) by 100 μL/necessary number of wells (2 wells for 1 dosage) and cultured for about 24 hours. After the culturing and subsequent removal of the supernatants on the 96 well plate, the compounds having respective concentrations prepared by dissolving or suspending in MEM medium containing 25 μmol/L of nitrobenzoxazole dipalmitoyl phosphatidyl ethanolamine (NBD-PE) (hereinafter abbreviated to NBD-PE medium) were added thereto by 100 μL/ well and treated for about 24 hours. Treating concentration of each compound was set to be 6.25, 12.5, 25, 50 or 100 μmol/L. […] In this connection, 5 wells of an untreated control (MEM medium alone) or an NBD-PE control (prepared by adding 1/100 volume of DMSO to the NBD-PE medium) were arranged for each compound and cultured in the same manner. After completion of the culturing and subsequent two times of washing with 100 μL/well of phosphate buffered saline (hereinafter abbreviated to PBS) (−), 100 μL of the MEM medium was added to all of the treated wells including two empty wells for the WST-1 background control and cultured for about 0.5 hour. Fluorescence intensity of each well was measured using a microplate reader (manufactured by Molecular Devices, SPECTRA max M2; excitation wavelength 485 nm/fluorescence wavelength 535 nm). Using average value of 2 wells for each dosage, the phospholipid increasing ratio (%) based on NBD-PE control was calculated using the following formula. Phospholipid accumulation increasing ratio (%)=100×(fluorescence intensity of substance to be tested−fluorescence intensity of untreated control)/(fluorescence intensity of NBD-PE control−fluorescence intensity of untreated control) (iii) Cytotoxicity Test The Pre value was calculated by measuring the 96 well plate which was measured in the measurement of phospholipid accumulation, using the microplate reader (manufactured by Molecular Devices, SPECTRA max M2) at a dominant wavelength of 450 nm and a correction wavelength of 690 nm. Premix WST-1 was added to the pre-measured 96 well plate by 5 μL/well. After 2 to 4 hours of culture, the Aft value was calculated by measuring in the same manner as in the Pre measurement. The background control value was subtracted from each of the measured values. Using the value obtained by subtracting the Pre value from the Aft value, the cell growth ratio (%) was calculated using the following formula.

| Compound | pIC50 [1] | pIC50 [2] | Binding Level (RU) ([3]; compound 50 μM, DOPA liposomes on Sensor Chip L1, 37° C., PBS/5% DMSO (pH 7.4 or pH 6.0)) | Judgment ([3]; phospholipidosis inducing activity judged from artificial lipid membrane binding) | inhibition at 0.3 mg/kg [4] [%] | Pospholipid accumulation increasing ratio (% of 30 uM amiodarone) (Dose of compound: 100 uM) ([5]; compound 100 uM, about 24 hours with NBD-PE) | Judgment ([5]; phospholipidosis inducing activity, NBD-PE) |
| --- | --- | --- | --- | --- | --- | --- | --- |
| Cc1cc(Cl)cc(C)c1-n1cc(-c2nc(C(C)(CO)CO)oc2-c2ccc(F)cc2F)ccc1=O [Compound 6a, 1-(4-chloro-2,6-dimethylphenyl)-5-{5-(2,4-difluorophenyl)-2-[2-hydroxy-1-(hydroxymethyl)-1-methylethyl]-1,3-oxazol-4-yl}-2(1H)-pyridinone] | 8.59 | 7.92 | – | – | – | – | – |
| CC(C)(O)c1nc(-c2ccc(F)cc2F)c(-c2ccc(=O)n(-c3c(F)cccc3F)c2)o1 [Compound 89 (b), 1-(2,6-difluorophenyl)-5-[4-(2,4-difluorophenyl)-2-(1-hydroxy-1-methylethyl)-1,3-oxazol-5-yl]-2(1H)-pyridinone] | 9.15 | 8.77 | 15.5 | Negative | 82 | – | – |
| C[C@](O)(CO)c1nc(-c2ccc(F)cc2F)c(-c2ccc(=O)n(-c3c(F)cccc3F)c2)o1 [Example 210, 1-(2,6-difluorophenyl)-5-{4-(2,4-difluorophenyl)-2-[(1S)-1,2-dihydroxy-1-methylethyl]-1,3-oxazol-5-yl}-2(1H)-pyridinone] | 9.15 | 8.24 | – | – | 49 | 8 % of 30 uM amiodarone | Negative |
